Tested on: CP myoblast cultures
Assay: Real-time qPCR gene expression profiling in fusing CP myoblasts
Type: cell-based, human
Design: key to JAG2 Expression / ATP2A1 Expression / DLL1 Expression / MYF5 Expression / ATP2A2 Expression / JAG1 Expression / SIX1 Expression / MYH7 Expression / CDKN1A Expression / NRG1 Expression / DLK1 Expression: relative expression vs non-treated; ≥2 up, ≤0.5 down
Method: To investigate whether additional signaling pathways and genes were affected by 5-AZA treatment, real-time qPCR was used to analyze the expression of 91 genes involved in myogenesis, neurogenesis and adipogenesis in fusing CP myoblasts after 24 hours of pretreatment with 5 μM of 5-AZA (Supp. Table 2A). […] Also, 5-AZA pretreatment led to upregulation of transcription regulators involved in myogenesis and other signaling pathways (BMI1, SIX1, SIX4, EGR3, FOXO1, MAPK14, MEF2A, MEF2C, MYF5, MYOG, NEUROD2, NOTCH2, PAX3, PAX7, PPARA, PPARD, PPARG, RPBJ, RARA). […] Impairment in other signaling pathways involved in myoblast fusion and myotube formation (e.g., TMEM8C/Myomaker, Rho GTPases, MAPKs, Calcineurin-NFATc2, NF-KB, WNT, MMPs) may also contribute to the decrease in myogenic potential of CP myoblasts.
Myoblasts, treated or non-treated with 5 μM 5-AZA for 24 hours, were cultured in high serum medium until they reached 80-90% confluence. After switch to low-serum medium, myoblast preparations were allowed to differentiate for 24-72 hours before RNA extraction. Total RNA was isolated and purified from myoblast cell culture preparations using Trizol reagent (Ambion—Life Technologies) according to manufacturer's recommendations. First-strand cDNA synthesis from purified RNAs and qPCR amplification was performed using the GoTaq 2-Step RT-qPCR System kit (Promega) according to manufacturer's protocols. Resulting cDNAs were subjected to SYBR Green-based real-time amplification using a C1000 Thermal Cycler apparatus (Bio-Rad). Each PCR amplification reaction (20 μl volume) contained 100 ng of starting cDNA template and primers amplifying a specific gene. Gene expression profiling during myoblast differentiation was investigated using predesigned 96-well gene panels for use with SYBR Green (SABioscience) (Tables 1A and 2A).
The predesigned 96-well gene panels utilized expertly designed and experimentally validated PCR primers and assays and included 3 reference genes for relative gene expression normalization and quantification: HPRT1, TBP and AP3DI. These reference genes were specifically validated for our experimental treatment and conditions and were selected among 15 experimentally tested candidates and analyzed using the software packages Bestkeeper, geNorm and Normfinder. Cycling conditions for SYBR Green primers consisted of an initial step at 50° C. (2 minutes) and a first denaturizing step at 95° C. (2 minutes), followed by 50 cycles of a thermal step protocol consisting of 95° C. (20 seconds), 60° C. (20 seconds) and 72° C. (20 seconds). A standard melt curve profiling consisting of a 65-95° C. thermal ramp was performed at the end of each protocol. Gene expression quantification was performed using Bio-Rad CFX Manager software. Positively and negatively regulated genes were selected following a P<0.05 and a 2 or 0.5 expression level respectively. Functional gene classification was performed using The Database for Annotation, Visualization and Integrated Discovery (DAVID) v6.8 (at <https://david.ncifcrf.gov/>).

[1] = 5 μM 24 hours pretreatment vs non-treated CP, 48-72 hours of differentiation
[2] = gene ACTA1, 5 μM 24 h pretreatment vs non-treated CP
[3] = gene ACTG1, 5 μM 24 h pretreatment vs non-treated CP
[4] = gene ACTN2, 5 μM 24 h pretreatment vs non-treated CP
[5] = gene ATP2A1, 5 μM 24 h pretreatment vs non-treated CP
[6] = gene ATP2A2, 5 μM 24 h pretreatment vs non-treated CP
[7] = gene BCL2, 5 μM 24 h pretreatment vs non-treated CP
[8] = gene BMI1, 5 μM 24 h pretreatment vs non-treated CP
[9] = gene CAV3, 5 μM 24 h pretreatment vs non-treated CP
[10] = gene CDKN1A, 5 μM 24 h pretreatment vs non-treated CP
[11] = gene DES, 5 μM 24 h pretreatment vs non-treated CP
[12] = gene DLK1, 5 μM 24 h pretreatment vs non-treated CP
[13] = gene DLL1, 5 μM 24 h pretreatment vs non-treated CP
[14] = gene EGR3, 5 μM 24 h pretreatment vs non-treated CP
[15] = gene FHL2, 5 μM 24 h pretreatment vs non-treated CP
[16] = gene FOXO1, 5 μM 24 h pretreatment vs non-treated CP
[17] = gene ITGA7, 5 μM 24 h pretreatment vs non-treated CP
[18] = gene ITGB1, 5 μM 24 h pretreatment vs non-treated CP
[19] = gene JAG1, 5 μM 24 h pretreatment vs non-treated CP
[20] = gene JAG2, 5 μM 24 h pretreatment vs non-treated CP
[21] = gene LRP4, 5 μM 24 h pretreatment vs non-treated CP
[22] = gene MAPK14, 5 μM 24 h pretreatment vs non-treated CP
[23] = gene MEF2A, 5 μM 24 h pretreatment vs non-treated CP
[24] = gene MEF2C, 5 μM 24 h pretreatment vs non-treated CP
[25] = gene MET, 5 μM 24 h pretreatment vs non-treated CP
[26] = gene MYF5, 5 μM 24 h pretreatment vs non-treated CP
[27] = gene MYF6, 5 μM 24 h pretreatment vs non-treated CP
[28] = gene MYH2, 5 μM 24 h pretreatment vs non-treated CP
[29] = gene MYH3, 5 μM 24 h pretreatment vs non-treated CP
[30] = gene MYH7, 5 μM 24 h pretreatment vs non-treated CP
[31] = gene MYH8, 5 μM 24 h pretreatment vs non-treated CP
[32] = gene MYH9, 5 μM 24 h pretreatment vs non-treated CP
[33] = gene MYOG, 5 μM 24 h pretreatment vs non-treated CP
[34] = gene NCAM1, 5 μM 24 h pretreatment vs non-treated CP
[35] = gene NEUROD2, 5 μM 24 h pretreatment vs non-treated CP
[36] = gene NOTCH2, 5 μM 24 h pretreatment vs non-treated CP
[37] = gene NRG1, 5 μM 24 h pretreatment vs non-treated CP
[38] = gene PAK1, 5 μM 24 h pretreatment vs non-treated CP
[39] = gene PAX3, 5 μM 24 h pretreatment vs non-treated CP
[40] = gene PAX7, 5 μM 24 h pretreatment vs non-treated CP
[41] = gene PDGFRA, 5 μM 24 h pretreatment vs non-treated CP
[42] = gene PDGFRB, 5 μM 24 h pretreatment vs non-treated CP
[43] = gene PPARA, 5 μM 24 h pretreatment vs non-treated CP
[44] = gene PPARD, 5 μM 24 h pretreatment vs non-treated CP
[45] = gene PPARG, 5 μM 24 h pretreatment vs non-treated CP
[46] = gene RARA, 5 μM 24 h pretreatment vs non-treated CP
[47] = gene RBPJ, 5 μM 24 h pretreatment vs non-treated CP
[48] = gene SHH, 5 μM 24 h pretreatment vs non-treated CP
[49] = gene SIX1, 5 μM 24 h pretreatment vs non-treated CP
[50] = gene SIX4, 5 μM 24 h pretreatment vs non-treated CP
[51] = gene TMEM8C, 5 μM 24 h pretreatment vs non-treated CP

SMILES: Nc1ncn([C@@H]2O[C@H](CO)[C@@H](O)[C@H]2O)c(=O)n1 [5-AZA, 5-azacytidine]
- genes significantly downregulated (of 91 genes) [1]: 7 genes
- genes significantly upregulated (of 91 genes) [1]: 43 genes
- ACTA1 Expression [2]: 5.23
- ACTA1 Regulation [2]: 5.2
- ACTG1 Expression [3]: 0.09
- ACTG1 Regulation [3]: −10.7
- ACTN2 Expression [4]: 5.96
- ACTN2 Regulation [4]: 6.0
- ATP2A1 Expression [5]: 7.87
- ATP2A1 Regulation [5]: 7.9
- ATP2A2 Expression [6]: 3.26
- ATP2A2 Regulation [6]: 3.3
- BCL2 Expression [7]: 5.33
- BCL2 Regulation [7]: 5.3
- BMI1 Expression [8]: 2.97
- BMI1 Regulation [8]: 3.0
- CAV3 Expression [9]: 2.92
- CAV3 Regulation [9]: 2.9
- CDKN1A Expression [10]: 0.23
- CDKN1A Regulation [10]: −4.4
- DES Expression [11]: 6.23
- DES Regulation [11]: 6.2
- DLK1 Expression [12]: 16.51
- DLK1 Regulation [12]: 16.5
- DLL1 Expression [13]: 7.05
- DLL1 Regulation [13]: 7.0
- EGR3 Expression [14]: 14.93
- EGR3 Regulation [14]: 14.9
- FHL2 Expression [15]: 0.45
- FHL2 Regulation [15]: −2.2
- FOXO1 Expression [16]: 7.30
- FOXO1 Regulation [16]: 7.3
- ITGA7 Expression [17]: 4.22
- ITGA7 Regulation [17]: 4.2
- ITGB1 Expression [18]: 2.11
- ITGB1 Regulation [18]: 2.1
- JAG1 Expression [19]: 2.61
- JAG1 Regulation [19]: 2.6
- JAG2 Expression [20]: 10.19
- JAG2 Regulation [20]: 10.2
- LRP4 Expression [21]: 3.01
- LRP4 Regulation [21]: 3.0
- MAPK14 Expression [22]: 2.84
- MAPK14 Regulation [22]: 2.8
- MEF2A Expression [23]: 10.08
- MEF2A Regulation [23]: 10.1
- MEF2C Expression [24]: 5.79
- MEF2C Regulation [24]: 5.8
- MET Expression [25]: 2.07
- MET Regulation [25]: 2.1
- MYF5 Expression [26]: 6.99
- MYF5 Regulation [26]: 7.0
- MYF6 Expression [27]: 3.77
- MYF6 Regulation [27]: 3.8
- MYH2 Expression [28]: 6.99
- MYH2 Regulation [28]: 7.0
- MYH3 Expression [29]: 6.74
- MYH3 Regulation [29]: 6.7
- MYH7 Expression [30]: 2.15
- MYH7 Regulation [30]: 2.1
- MYH8 Expression [31]: 2.51
- MYH8 Regulation [31]: 2.5
- MYH9 Expression [32]: 0.17
- MYH9 Regulation [32]: −5.8
- MYOG Expression [33]: 7.72
- MYOG Regulation [33]: 7.7
- NCAM1 Expression [34]: 6.55
- NCAM1 Regulation [34]: 6.6
- NEUROD2 Expression [35]: 56.33
- NEUROD2 Regulation [35]: 56.3
- NOTCH2 Expression [36]: 3.12
- NOTCH2 Regulation [36]: 3.1
- NRG1 Expression [37]: 0.47
- NRG1 Regulation [37]: −2.1
- PAK1 Expression [38]: 4.49
- PAK1 Regulation [38]: 4.5
- PAX3 Expression [39]: 12.50
- PAX3 Regulation [39]: 12.5
- PAX7 Expression [40]: 2.88
- PAX7 Regulation [40]: 2.9
- PDGFRA Expression [41]: 0.38
- PDGFRA Regulation [41]: −2.6
- PDGFRB Expression [42]: 0.34
- PDGFRB Regulation [42]: −2.9
- PPARA Expression [43]: 2.69
- PPARA Regulation [43]: 2.7
- PPARD Expression [44]: 3.55
- PPARD Regulation [44]: 3.6
- PPARG Expression [45]: 24.42
- PPARG Regulation [45]: 24.4
- RARA Expression [46]: 2.19
- RARA Regulation [46]: 2.2
- RBPJ Expression [47]: 3.84
- RBPJ Regulation [47]: 3.8
- SHH Expression [48]: 23.75
- SHH Regulation [48]: 23.8
- SIX1 Expression [49]: 2.21
- SIX1 Regulation [49]: 2.2
- SIX4 Expression [50]: 3.20
- SIX4 Regulation [50]: 3.2
- TMEM8C Expression [51]: 3.59
- TMEM8C Regulation [51]: 3.6

— patent US20190112580A1, “METHODS FOR TREATING CO[…] AND RELATED CULTURED CELLS” (priority 2017, published 2019)
